Results on two compounds are retold here after patent US7226940B2, “Substituted heterocycles for the treatment of diabetes and other diseases” (Incyte San Diego, Inc., priority 2004, dated 2007).

The test system of one assay is db/db mutant mice. Nature of the assay: Oral administration in the early intervention treatment of type 2 diabetes in db/db mutant mice. Particulars: day 12. The assay is classed as in vivo. How it is done:
Five week-old female db/db mutant mice (C57BL/KsJ-db +/+ m; Jackson Labs) were housed in a fixed 12-12-hr artificial light-dark cycle, and maintained on a standard high fat diet (containing at least 11% crude fat) provided ad libitum (Teklad S-2335). Animals were allowed two days to acclimate in this experimental environment prior to the initiation of the study.
Prior to initiation of treatment, the animals were bled from the tail vein (100–200 μL of whole blood) and serum levels of glucose and triglycerides were measured in duplicate (Trinder kits; Sigma, St. Louis, Mo.). Based on these initial measures, animals (not yet hyperglycemic) were sorted into groups with approximately the same average serum glucose levels. Once sorted, the animals were housed six per cage and provided high fat rodent diet ad libitum. • Experiment I: (Compound 1) • Treatment groups (n=6/group): • 1) db/db control (sesame oil) • 2) Compound 1 (0.3 mg/kg; twice daily) • 3) Compound 1 (1 mg/kg; twice daily) • Experiment II: (Compound 32) • Treatment groups (n=6/group): • 1) db/db control (sesame oil) • 2) Compound 32 (0.3 mg/kg; once daily) • 3) Compound 32 (1 mg/kg; once daily) • 4) Compound 32 (3 mg/kg; once daily) • 3) Rosiglitazone (1 mg/kg; only daily)
Drug is prepared by mixing Compound 1 or 32 in sesame oil, and administered to animals in a volume of 5 ml/kg/dose. Drug is administered by oral gavage daily at the beginning (Compound 1 and 32) and end of the artificial dark cycle (Compound 1; 12 hour interval).
To monitor the effect of Compound 1 or 32, animals were bled following a three-hour fast at the end of the dark cycle on days 12 of the treatment period. Fasting serum glucose and triglyceride levels were measured in duplicate. The blood is kept at room temperature to allow coagulation, after which the serum is separated and assayed for glucose and triglyceride levels.

In another assay the test system is ob/ob mutant mice. The assay is described as follows: Oral administration in the late intervention treatment of type 2 diabetes in ob/ob mutant mice. In kind it is in vivo. The following applies: oral gavage 5 mg/kg twice daily, p<0.05 vs control; for fasting serum glucose levels: 1 and 2 weeks of treatment; for fasting serum triglyceride levels: two weeks of treatment. How it is done:
Five week-old male ob/ob mutant mice (C57BL/6J-ob; Jackson Labs) were housed in a fixed 12-12-hr artificial light-dark cycle, and maintained on a standard diet provided ad libitum. Animals were allowed two days to acclimate in this experimental environment prior to the initiation of the study.
Prior to initiation of treatment, the animals were bled from the tail vein (100–200 μL of whole blood) and serum levels of glucose and triglycerides were measured in duplicate (Trinder kits; Sigma, St. Louis, Mo.). Based on these initial measures, hyperglycemic animals were sorted into groups with approximately the same average serum glucose levels. Once sorted, the animals were housed six per cage and provided standard rodent diet ad libitum. • Treatment groups (n=6/group): • 1) ob/ob control (sesame oil) • 2) Compound 1 (5mg/kg twice daily)
Drug is prepared by mixing Compound 1 in sesame oil, and administered to animals in a volume of 3 ml/kg/dose. Drug is administered by oral gavage twice daily at the beginning and end of the artificial dark cycle (12 hour interval).
To monitor the effect of Compound 1, animals were bled following a three-hour fast at the end of the dark cycle on days 7 and 14 of the treatment period. Fasting serum glucose and triglyceride levels were measured in duplicate. The blood is kept at room temperature to allow coagulation, after which the serum is separated and assayed for glucose and triglyceride levels.

The mark [1] stands for this setting: young db/db mice, oral gavage, 0.3 or 1 mg/kg twice daily.
Where [2] appears, read: young db/db mice, oral gavage, 0.3 or 1 mg/kg twice daily, listed as compound 1.
Where [3] appears, read: db/db mice, oral gavage, 0.3, 1 or 3 mg/kg once daily, rosiglitazone 1 mg/kg as comparator.
The mark [4] stands for this setting: db/db mice, oral gavage, 0.3, 1 or 3 mg/kg once daily, rosiglitazone 1 mg/kg as comparator, listed as compound 32.

SMILES strings stand for the structures.

In the case of `COc1ccc(/C=C2\SC(=O)NC2=O)cc1-c1cc2c(cc1C)C(C)(C)CCC2(C)C` [Compound 1, 3-(3,5,5,8,8-Pentamethyl-5,6,7,8-tetrahydro-2-naphthyl)-4-methoxybenzylidene-2,4-thiazolidinedione], the “fasting serum glucose levels” value in the assay on db/db mutant mice (setting [1]) is recorded as “remained well within the normal range”; in the assay with db/db mutant mice (setting [2]), “prevent increases”; in the assay on ob/ob mutant mice (5 mg/kg), “significant decrease”; in the assay on ob/ob mutant mice (listed as compound 1, 5 mg/kg) it was “reduce”. In addition, the “fasting serum triglyceride levels” value in the assay with db/db mutant mice (setting [1]) is on record as “remained well within the normal range”; with db/db mutant mice (setting [2]), “prevent increases”; with ob/ob mutant mice (5 mg/kg), “significantly reduced”; in the assay with ob/ob mutant mice (listed as compound 1, 5 mg/kg), “reduce”.
As to `Cc1cc2c(cc1-c1cc(/C=C3\SC(=O)NC3=O)ccc1OC(F)(F)F)C(C)(C)CCC2(C)C` [Compound 32, 3-(3,5,5,8,8-Pentamethyl-5,6,7,8-tetrahydro-2-naphthyl)-4-trifluoromethoxybenzylidene-2,4-thiazolidinedione], in the assay on db/db mutant mice (setting [3]), the “fasting serum glucose levels” value is given as “remained well within the normal range” and the “fasting serum triglyceride levels” value was “remained well within the normal range”. Also, in the assay with db/db mutant mice (setting [4]), the “fasting serum glucose levels” value is “equally or more potent than rosiglitazone” and the “fasting serum triglyceride levels” value was “equally or more potent than rosiglitazone”.
